Test results reported in ChEMBL document CHEMBL1134884, “Novel indolo[2,1-b]quinazoline analogues as cytostatic agents: synthesis, biological evaluation and structure-activity relationship” (Bioorg Med Chem Lett, 2002).

How the values were obtained:
M14 = assay: Tested for in vitro cytotoxic activity against melanoma M14 human cancer cell lines; type: functional
SW-620 = assay: Tested for in vitro cytotoxic activity against colon SW620 human cancer cell lines; type: functional
NCI-H522 = assay: Tested for in vitro cytotoxic activity against lung H522 human cancer cell lines; type: functional
SK-OV-3 = assay: Tested for in vitro cytotoxic activity against ovarian SKOV3 human cancer cell lines; type: functional
U-251 = assay: Tested for in vitro cytotoxic activity against CNS U251 human cancer cell lines; type: functional
A498 = assay: Tested for in vitro cytotoxic activity against renal A498 human cancer cell lines; type: functional
NCI/ADR-RES = assay: Tested for in vitro cytotoxic activity against breast MCF-7/ADR human cancer cell lines; type: functional
DU-145 = assay: Tested for in vitro cytotoxic activity against prostate DU145 human cancer cell lines; type: functional
Mus musculus [1] = organism: Mus musculus; assay: Antitumor activity after 24 days was determined.; type: functional
Mus musculus [2] = assay: Maximum mean weight loss on 24th day after administration of 40 mg/kg daily for 10 days(total 400 mg/kg).; type: functional
[3] = Bioavailability (dose 20 mg/kg); type: ADME, organism-based; conditions: eutheria, in vivo
Mus musculus [4] = organism: Mus musculus; assay: Antitumor activity after 17 days was determined.; type: functional
Mus musculus [5] = assay: Maximum mean weight loss on 26th day after administration of 40 mg/kg daily for 10 days(total 400 mg/kg).; type: functional

| bioavailability [3] [%] | SMILES | GI50 (M14) [µM] | GI50 (SW-620) [µM] | GI50 (NCI-H522) [µM] | GI50 (SK-OV-3) [µM] | GI50 (U-251) [µM] | GI50 (A498) [µM] | GI50 (NCI/ADR-RES) [µM] | GI50 (DU-145) [µM] | Optimum T/C (Mus musculus [1]) [%] | Max mean weight loss (Mus musculus [2]) [%] | Optimum T/C (Mus musculus [4]) [%] | Max mean weight loss (Mus musculus [5]) [%] |
| --- | --- | --- | --- | --- | --- | --- | --- | --- | --- | --- | --- | --- | --- |
|  | COc1ccc2c(c1)C(=O)c1nc3ccccc3c(=O)n1-2 | > 100 | > 100 | > 100 | > 100 | > 100 | > 100 | > 100 | > 100 |  |  |  |  |
|  | O=c1c2ccccc2nc2n1-c1ccccc1/C2=N\OCCN1CCCC1 | 2 | 0.85 | 3 | 3 | 25 | 5 | 6 | 3 |  |  |  |  |
|  | O=c1c2ccccc2nc2n1-c1ccc([N+](=O)[O-])cc1/C2=N\OCCO | 2 | 0.75 | 0.7 | 2 | 0.8 | 0.6 | 0.4 | 2.5 |  |  |  |  |
|  | CCCCC1(O)c2ccccc2-n2c1nc1ccccc1c2=O (centres undefined) | > 100 | > 100 | > 100 | > 100 | > 100 | > 100 | > 100 | > 100 |  |  |  |  |
|  | CN(C)CCO/N=C1\c2cc(Br)ccc2-n2c1nc1ccccc1c2=O | 2 | 3 | 2 | 3 | 0.45 | 1.5 | 0.06 | 0.2 |  |  |  |  |
|  | CN1CCN(CC(=O)Nc2ccc3c(c2)C(=O)c2nc4ccccc4c(=O)n2-3)CC1 | 8 | 10 | 15 | 6 | > 100 | 20 | 20 | 10 |  |  |  |  |
|  | O=C(CO/N=C1\c2ccccc2-n2c1nc1ccccc1c2=O)Nc1ccccn1 | 95 | > 100 | 25 | 52 | 8.5 | 20 | 8 | 10 |  |  |  |  |
|  | O=C1c2ccccc2-n2c1nc1ccc([N+](=O)[O-])cc1c2=O | > 100 | > 100 | > 100 | > 100 | > 100 | > 100 | > 100 | > 100 |  |  |  |  |
|  | O=C1c2cc(Cl)ccc2-n2c1nc1ccccc1c2=O | > 100 | > 100 | > 100 | > 100 | > 100 | > 100 | > 100 | > 100 |  |  |  |  |
|  | CN(C)CCCO/N=C1\c2ccccc2-n2c1nc1ccccc1c2=O | 5 | 4 | 0.6 | 2 | 0.7 | 4 | 7.5 | 3.5 |  |  |  |  |
|  | CCCC(=O)Nc1ccc2c(c1)C(=O)c1nc3ccccc3c(=O)n1-2 | 18.5 | 10.5 | 18.2 | 6 | 12 | 20 | 10 | 20 |  |  |  |  |
|  | O=Nc1c2ccccc2n2c(O)c3ccccc3nc12 | 40 | 8 | 50 | 30 | 15 | 60 | 15 | 50 |  |  |  |  |
|  | Nc1ccc2nc3n(c(=O)c2c1)-c1ccccc1C3=O | 60 | 60 | 60 | 40 | 70 | 80 | 40 | 60 |  |  |  |  |
|  | CCC(=O)Nc1ccc2c(c1)C(=O)c1nc3ccccc3c(=O)n1-2 | 10 | 22 | 18 | 8 | > 100 | 7 | 20 | 10 |  |  |  |  |
|  | Cc1ccc2c(c1)C(=O)c1nc3ccccc3c(=O)n1-2 | 60 | > 100 | 0.15 | > 100 | 20 | 60 | 0.1 | > 100 |  |  |  |  |
|  | O=c1c2ccccc2nc2n1-c1ccccc1/C2=N\OCCO | 30 | 20 | 7 | 20 | 1 | 40 | 0.01 | 3 |  |  |  |  |
|  | O=C1c2cc([N+](=O)[O-])ccc2-n2c1nc1ccccc1c2=O | 15 | 25 | 4.8 | 25 | 4.5 | 2 | 1 | 8 |  |  |  |  |
|  | Nc1ccc2c(c1)C(=O)c1nc3ccccc3c(=O)n1-2 | 5 | 4.8 | 5 | 5 | 0.7 | 3 | 5 | 2 |  |  |  |  |

| bioavailability [3] [%] | SMILES | GI50 (M14) [µM] | GI50 (SW-620) [µM] | GI50 (NCI-H522) [µM] | GI50 (SK-OV-3) [µM] | GI50 (U-251) [µM] | GI50 (A498) [µM] | GI50 (NCI/ADR-RES) [µM] | GI50 (DU-145) [µM] | Optimum T/C (Mus musculus [1]) [%] | Max mean weight loss (Mus musculus [2]) [%] | Optimum T/C (Mus musculus [4]) [%] | Max mean weight loss (Mus musculus [5]) [%] |
| --- | --- | --- | --- | --- | --- | --- | --- | --- | --- | --- | --- | --- | --- |
|  | O=C1c2cc(Br)ccc2-n2c1nc1ccccc1c2=O | 0.8 | 0.4 | 0.7 | 5 | > 100 | 3 | 0.7 | 0.15 |  |  |  |  |
|  | CC(=O)Nc1ccc2c(c1)C(=O)c1nc3ccccc3c(=O)n1-2 | 10 | 30 | 5 | 20 | 20 | 0.4 | 0.4 | 0.5 |  |  |  |  |
|  | CN(C)CCO/N=C1\c2cc([N+](=O)[O-])ccc2-n2c1nc1ccccc1c2=O | 7.5 | 0.75 | 9 | 9 | 7.5 | > 100 | 4 | > 100 |  |  |  |  |
|  | COC(=O)CO/N=C1\c2ccccc2-n2c1nc1ccccc1c2=O | 40 | > 100 | 80 | 50 | > 100 | > 100 | 0.01 | 30 |  |  |  |  |
|  | C=CC1(O)c2ccccc2-n2c1nc1ccccc1c2=O (centres undefined) | 8 | 10 | 15 | 6 | 12 | 12 | 20 | 10 |  |  |  |  |
|  | CC1(O)c2ccccc2-n2c1nc1ccccc1c2=O (centres undefined) | > 100 | > 100 | > 100 | > 100 | > 100 | > 100 | > 100 | > 100 |  |  |  |  |
|  | COc1cc2nc3n(c(=O)c2cc1OC)-c1ccccc1C3=O | > 100 | > 100 | > 100 | > 100 | > 100 | > 100 | > 100 | > 100 |  |  |  |  |
| 14 | CN(C)CCO/N=C1\c2ccccc2-n2c1nc1ccccc1c2=O | 2 | 0.75 | 0.7 | 2 | 0.8 | 0.6 | 0.4 | 2.5 | 75 | 14 |  |  |
|  | CS(=O)(=O)Nc1ccc2c(c1)C(=O)c1nc3ccccc3c(=O)n1-2 | > 100 | > 100 | > 100 | > 100 | > 100 | > 100 | > 100 | > 100 |  |  |  |  |
|  | O=c1c2ccccc2nc2n1-c1ccccc1/C2=N\OCCCN1CCCC1 | 6 | 4.5 | 4 | 4 | 6 | 7 | 5 | 5 |  |  |  |  |
|  | O=C(CCl)Nc1ccc2c(c1)C(=O)c1nc3ccccc3c(=O)n1-2 | 0.9 | 0.6 | 4 | 0.05 | 0.2 | 0.4 | 0.06 | 0.25 |  |  |  |  |
|  | O=C(/C=C/c1ccccc1)O/N=C1\c2ccccc2-n2c1nc1ccccc1c2=O | 90 | 60 | 45 | 6 | 20 | 10 | 7.5 | > 100 |  |  |  |  |
|  | O=c1c2ccccc2nc2n1-c1ccc(Br)cc1/C2=N\OCCN1CCCCC1 | 2.5 | 3 | 2 | 1 | 0.095 | 2 | 0.3 | 0.55 |  |  |  |  |
| 76 | CN(C)CCCO/N=C1\c2cc([N+](=O)[O-])ccc2-n2c1nc1ccccc1c2=O | 0.4 | 0.5 | 0.4 | 0.6 | 2.5 | 0.09 | 4 | 2 |  |  | 23 | 14 |
|  | O=c1c2ccccc2nc2n1-c1ccccc1C2(O)OCCOc1ccccc1 (centres undefined) | > 100 | > 100 | > 100 | > 100 | > 100 | > 100 | > 100 | > 100 |  |  |  |  |
|  | O=C1c2ccccc2-n2c1nc1ccc(Br)cc1c2=O | > 100 | > 100 | > 100 | > 100 | > 100 | > 100 | > 100 | > 100 |  |  |  |  |
|  | O=C1c2cc3c(cc2-n2c1nc1ccccc1c2=O)OCO3 | > 100 | > 100 | > 100 | > 100 | > 100 | > 100 | > 100 | > 100 |  |  |  |  |
|  | O=C1c2ccccc2-n2c1nc1ccccc1c2=O [TRYPTANTHRIN] | 15 | 5 | 15 | 2.5 | 100 | 0.95 | 30 | 0.4 |  |  |  |  |
